Measurements reported in PMC8766756, “Insights on Cancer Cell Inhibition, Subcellular Activities, and Kinase Profile of Phenylacetamides Pending 1H-Imidazol-5-One Variants” (Frontiers in Pharmacology, 2022).
Where “and” joins values, the source holds several entries; their conditions need not be identical. Equal entries are not always repeated.

Columns and labels:
Assay in all cases: PamChip tyrosine kinase microarray
Assay type in all cases: biochemical
Settings in all cases: 0.1 µM, HL60 lysate
EphA5 (P54756) = molecular target: T1, EphA5 (P54756) (Homo sapiens, UniProt P54756)
T1 construct: purchased PamGene (PamChip PTK array, Upstream Kinase Analysis)
Method in brief: (§1)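 HL60 (AML) cell lysate was spiked with compound at 0.001, 0.01, 0.1, 1, 10 and 50 µM, or 2% v/v DMSO as control, then profiled in technical replicates on a tyrosine kinase peptide array of 196 phosphosites. Kinase activity was inferred from peptide-set changes using an upstream kinase tool.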

RYK (H0Y8A4) = molecular target: T2, RYK (H0Y8A4) (Homo sapiens, UniProt P34925)
T2 construct: purchased PamGene (PamChip PTK array, Upstream Kinase Analysis)
Method in brief: as §1

PDGFR[alpha] (P16234) = molecular target: T3, PDGFR[alpha] (P16234) (Homo sapiens, UniProt P16234)
T3 construct: purchased PamGene (PamChip PTK array, Upstream Kinase Analysis)
Method in brief: as §1

ITK (Q08881) = molecular target: T4, ITK (Q08881) (Homo sapiens, UniProt Q08881)
T4 construct: purchased PamGene (PamChip PTK array, Upstream Kinase Analysis)
T4 sequence (Q08881 1-620): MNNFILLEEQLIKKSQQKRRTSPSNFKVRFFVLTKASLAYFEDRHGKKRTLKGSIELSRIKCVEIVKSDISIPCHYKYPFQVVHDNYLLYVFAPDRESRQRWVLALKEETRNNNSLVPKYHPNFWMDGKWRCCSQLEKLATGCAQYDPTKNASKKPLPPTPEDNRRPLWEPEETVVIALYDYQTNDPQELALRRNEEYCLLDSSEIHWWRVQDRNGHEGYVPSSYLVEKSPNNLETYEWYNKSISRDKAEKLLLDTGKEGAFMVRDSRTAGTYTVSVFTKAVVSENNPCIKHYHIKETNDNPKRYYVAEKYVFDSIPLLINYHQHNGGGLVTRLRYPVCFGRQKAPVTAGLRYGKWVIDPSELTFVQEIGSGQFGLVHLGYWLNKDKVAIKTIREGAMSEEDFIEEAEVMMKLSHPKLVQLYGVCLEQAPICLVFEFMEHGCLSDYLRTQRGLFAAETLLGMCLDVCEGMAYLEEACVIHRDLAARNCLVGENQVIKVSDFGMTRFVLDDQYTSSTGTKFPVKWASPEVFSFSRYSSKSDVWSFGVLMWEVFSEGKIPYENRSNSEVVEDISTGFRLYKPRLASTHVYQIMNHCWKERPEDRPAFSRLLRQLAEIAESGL
Method in brief: as §1

Arg (P42684) = molecular target: T5, Arg (P42684) (Homo sapiens, UniProt P42684)
T5 construct: purchased PamGene (PamChip PTK array, Upstream Kinase Analysis)
Method in brief: as §1

SRM (Q9H3Y6) = molecular target: T6, SRM (Q9H3Y6) (Homo sapiens, UniProt Q9H3Y6)
T6 construct: purchased PamGene (PamChip PTK array, Upstream Kinase Analysis)
Method in brief: as §1

Syk (P43405) = molecular target: T7, Syk (P43405) (Homo sapiens, UniProt P43405)
T7 construct: purchased PamGene (PamChip PTK array, Upstream Kinase Analysis)
Method in brief: as §1

T3 sequence (P16234 24-1089): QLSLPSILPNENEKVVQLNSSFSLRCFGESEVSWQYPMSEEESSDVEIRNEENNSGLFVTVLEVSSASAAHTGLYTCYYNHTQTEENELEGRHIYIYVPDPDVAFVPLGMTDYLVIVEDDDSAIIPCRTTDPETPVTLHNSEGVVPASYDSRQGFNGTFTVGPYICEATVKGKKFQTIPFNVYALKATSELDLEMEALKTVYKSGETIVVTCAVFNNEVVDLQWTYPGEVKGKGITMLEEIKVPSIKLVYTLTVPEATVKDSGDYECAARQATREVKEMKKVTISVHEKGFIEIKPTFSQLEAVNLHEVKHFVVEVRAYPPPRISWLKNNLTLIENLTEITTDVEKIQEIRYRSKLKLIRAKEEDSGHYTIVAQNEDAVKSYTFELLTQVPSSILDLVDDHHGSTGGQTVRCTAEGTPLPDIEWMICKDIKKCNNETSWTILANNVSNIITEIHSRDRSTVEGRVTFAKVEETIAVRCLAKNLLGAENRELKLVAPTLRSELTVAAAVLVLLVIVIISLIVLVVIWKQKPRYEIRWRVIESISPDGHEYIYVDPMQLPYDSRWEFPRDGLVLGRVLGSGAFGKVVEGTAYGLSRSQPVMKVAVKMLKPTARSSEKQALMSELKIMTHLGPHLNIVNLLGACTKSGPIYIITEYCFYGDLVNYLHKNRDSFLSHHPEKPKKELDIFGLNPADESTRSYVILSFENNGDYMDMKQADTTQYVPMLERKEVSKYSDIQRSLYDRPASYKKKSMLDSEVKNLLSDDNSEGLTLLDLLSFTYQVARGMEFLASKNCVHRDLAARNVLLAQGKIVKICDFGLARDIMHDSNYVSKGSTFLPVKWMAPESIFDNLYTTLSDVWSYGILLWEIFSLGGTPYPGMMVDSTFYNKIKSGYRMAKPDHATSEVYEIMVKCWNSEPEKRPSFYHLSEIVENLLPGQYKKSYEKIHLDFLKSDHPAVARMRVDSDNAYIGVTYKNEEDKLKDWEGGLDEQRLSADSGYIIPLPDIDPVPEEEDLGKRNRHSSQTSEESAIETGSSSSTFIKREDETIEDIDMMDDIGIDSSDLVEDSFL
T1 sequence (P54756 25-1037): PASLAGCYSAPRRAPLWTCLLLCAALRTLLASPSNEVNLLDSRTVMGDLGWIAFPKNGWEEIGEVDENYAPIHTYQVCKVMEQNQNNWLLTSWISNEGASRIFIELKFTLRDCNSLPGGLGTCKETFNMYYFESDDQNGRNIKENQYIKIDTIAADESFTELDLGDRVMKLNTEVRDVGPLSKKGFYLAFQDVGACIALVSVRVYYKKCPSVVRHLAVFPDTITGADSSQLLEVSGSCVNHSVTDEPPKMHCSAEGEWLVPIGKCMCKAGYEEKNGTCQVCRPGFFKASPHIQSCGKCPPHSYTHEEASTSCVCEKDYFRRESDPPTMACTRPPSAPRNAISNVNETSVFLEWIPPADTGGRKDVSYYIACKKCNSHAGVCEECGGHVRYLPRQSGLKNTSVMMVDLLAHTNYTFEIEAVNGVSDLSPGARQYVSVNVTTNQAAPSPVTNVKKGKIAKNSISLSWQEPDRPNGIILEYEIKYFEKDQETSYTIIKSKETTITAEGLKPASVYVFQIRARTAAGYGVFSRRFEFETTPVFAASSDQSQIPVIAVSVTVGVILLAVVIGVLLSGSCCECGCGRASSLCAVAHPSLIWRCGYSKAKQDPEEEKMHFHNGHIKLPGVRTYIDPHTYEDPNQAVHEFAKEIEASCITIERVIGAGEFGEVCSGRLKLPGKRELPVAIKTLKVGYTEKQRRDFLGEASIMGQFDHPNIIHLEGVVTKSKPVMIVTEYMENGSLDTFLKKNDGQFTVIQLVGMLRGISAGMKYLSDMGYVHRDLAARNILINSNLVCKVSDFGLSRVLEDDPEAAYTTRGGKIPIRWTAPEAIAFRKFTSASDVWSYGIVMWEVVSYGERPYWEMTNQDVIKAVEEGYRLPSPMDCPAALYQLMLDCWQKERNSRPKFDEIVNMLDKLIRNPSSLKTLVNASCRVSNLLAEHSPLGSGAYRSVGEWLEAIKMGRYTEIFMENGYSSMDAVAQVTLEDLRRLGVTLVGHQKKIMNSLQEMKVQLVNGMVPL
T2 sequence (P34925 26-607, one chain of several): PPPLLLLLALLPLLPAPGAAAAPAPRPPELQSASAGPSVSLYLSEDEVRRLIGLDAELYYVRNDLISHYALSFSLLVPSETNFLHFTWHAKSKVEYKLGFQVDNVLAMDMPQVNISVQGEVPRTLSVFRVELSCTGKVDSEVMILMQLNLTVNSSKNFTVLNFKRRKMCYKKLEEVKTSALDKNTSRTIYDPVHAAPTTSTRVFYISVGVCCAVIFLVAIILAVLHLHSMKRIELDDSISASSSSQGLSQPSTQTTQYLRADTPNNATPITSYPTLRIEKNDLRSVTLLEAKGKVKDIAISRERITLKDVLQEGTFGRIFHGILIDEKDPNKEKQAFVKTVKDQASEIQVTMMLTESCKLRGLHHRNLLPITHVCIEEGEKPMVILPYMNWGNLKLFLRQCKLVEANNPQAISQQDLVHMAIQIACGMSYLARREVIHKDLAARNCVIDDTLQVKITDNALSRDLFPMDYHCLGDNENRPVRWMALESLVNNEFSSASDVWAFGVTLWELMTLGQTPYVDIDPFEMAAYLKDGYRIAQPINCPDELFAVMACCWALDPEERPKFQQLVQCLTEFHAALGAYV
T5 sequence (P42684 whole entry): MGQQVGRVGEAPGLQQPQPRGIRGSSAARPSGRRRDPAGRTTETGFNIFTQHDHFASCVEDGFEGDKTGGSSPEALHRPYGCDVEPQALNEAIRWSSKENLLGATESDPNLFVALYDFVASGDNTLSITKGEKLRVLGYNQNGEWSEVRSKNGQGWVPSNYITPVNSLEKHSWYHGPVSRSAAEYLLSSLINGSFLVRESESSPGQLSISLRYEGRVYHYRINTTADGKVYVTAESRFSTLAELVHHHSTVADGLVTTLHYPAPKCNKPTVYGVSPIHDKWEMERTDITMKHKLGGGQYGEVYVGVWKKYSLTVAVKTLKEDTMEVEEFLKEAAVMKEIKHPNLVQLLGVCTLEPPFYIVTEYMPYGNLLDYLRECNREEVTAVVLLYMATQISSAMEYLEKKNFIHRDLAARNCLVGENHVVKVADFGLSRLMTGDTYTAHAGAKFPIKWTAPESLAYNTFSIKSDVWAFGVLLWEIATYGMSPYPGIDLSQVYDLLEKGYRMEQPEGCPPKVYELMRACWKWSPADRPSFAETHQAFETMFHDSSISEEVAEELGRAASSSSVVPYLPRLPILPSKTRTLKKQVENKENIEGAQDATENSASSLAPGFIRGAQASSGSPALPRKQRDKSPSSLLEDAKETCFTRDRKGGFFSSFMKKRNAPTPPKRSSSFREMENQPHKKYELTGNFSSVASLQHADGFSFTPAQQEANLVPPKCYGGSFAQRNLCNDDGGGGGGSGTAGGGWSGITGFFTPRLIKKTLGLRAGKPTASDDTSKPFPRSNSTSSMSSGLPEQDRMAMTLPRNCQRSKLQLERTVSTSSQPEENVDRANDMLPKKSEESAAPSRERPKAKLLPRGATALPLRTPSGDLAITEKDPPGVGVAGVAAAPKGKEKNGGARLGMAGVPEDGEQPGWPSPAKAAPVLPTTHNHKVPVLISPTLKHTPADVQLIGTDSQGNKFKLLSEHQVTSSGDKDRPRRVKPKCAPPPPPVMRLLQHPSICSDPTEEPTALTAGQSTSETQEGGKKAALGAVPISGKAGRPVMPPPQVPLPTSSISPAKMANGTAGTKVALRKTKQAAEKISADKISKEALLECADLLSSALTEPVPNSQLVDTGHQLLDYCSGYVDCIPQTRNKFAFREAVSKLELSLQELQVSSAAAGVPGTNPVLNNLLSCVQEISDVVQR
T6 sequence (Q9H3Y6 whole entry): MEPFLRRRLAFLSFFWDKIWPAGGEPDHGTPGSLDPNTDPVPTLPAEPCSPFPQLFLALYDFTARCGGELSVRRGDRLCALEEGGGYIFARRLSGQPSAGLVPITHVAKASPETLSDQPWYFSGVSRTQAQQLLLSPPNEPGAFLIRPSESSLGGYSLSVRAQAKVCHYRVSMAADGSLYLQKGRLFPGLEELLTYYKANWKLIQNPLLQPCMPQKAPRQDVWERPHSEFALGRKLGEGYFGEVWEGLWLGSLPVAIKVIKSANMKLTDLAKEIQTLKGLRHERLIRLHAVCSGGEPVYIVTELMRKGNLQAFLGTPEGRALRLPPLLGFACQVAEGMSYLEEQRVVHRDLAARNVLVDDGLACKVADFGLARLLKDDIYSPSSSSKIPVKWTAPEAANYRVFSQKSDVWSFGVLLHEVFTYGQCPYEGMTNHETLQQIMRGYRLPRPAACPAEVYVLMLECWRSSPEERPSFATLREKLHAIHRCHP

COc1ccc(/C=C2\N=C(C)N(c3ccc(CC(=O)NCc4ccccc4)cc3)C2=O)cc1 [Compound 4c, (Z)-N-Benzyl-2-(4-(4-(4-methoxybenzylidene)-2-methyl-5-oxo-4,5-dihydro-1H-imidazol-1-yl)phenyl)acetamide]
Mean Final score (Kinase score) (EphA5 (P54756)): 2.0125
Mean Kinase Statistic (EphA5 (P54756)): -1.181
Mean Significance Score (EphA5 (P54756)): 1.675
Mean Specificity Score (EphA5 (P54756)): 0.3238
Mean Final score (Kinase score) (RYK (H0Y8A4)): 2.574
Mean Kinase Statistic (RYK (H0Y8A4)): -1.293
Mean Significance Score (RYK (H0Y8A4)): 2.048
Mean Specificity Score (RYK (H0Y8A4)): 0.5126
Mean Final score (Kinase score) (PDGFR[alpha] (P16234)): 1.95
Mean Kinase Statistic (PDGFR[alpha] (P16234)): -1.208
Mean Significance Score (PDGFR[alpha] (P16234)): 1.701
Mean Specificity Score (PDGFR[alpha] (P16234)): 0.3388
Mean Significance Score (ITK (Q08881)): 2.048
Mean Specificity Score (ITK (Q08881)): 2.074
Mean Final score (Kinase score) (ITK (Q08881); listed as KIM-161): 3.95 and 3.951
Mean Final score (Kinase score) (Arg (P42684)): 2.115
Mean Kinase Statistic (Arg (P42684)): -1.085
Mean Significance Score (Arg (P42684)): 2.048
Mean Specificity Score (Arg (P42684)): 0.07369
Mean Significance Score (SRM (Q9H3Y6)): 2.048
Mean Specificity Score (SRM (Q9H3Y6)): 1.961
Mean Final score (Kinase score) (SRM (Q9H3Y6); listed as KIM-161): 4.1 and 4.097
Mean Final score (Kinase score) (Syk (P43405)): 2.113
Mean Kinase Statistic (Syk (P43405)): -1.091
Mean Significance Score (Syk (P43405)): 2.048
Mean Specificity Score (Syk (P43405)): 0.02997
